Experiments:
TEAD1 in SK-HEP1 cells = TEAD1 in SK-HEP1 cells (Homo sapiens (Human), UniProt P28347); experiment: TEAD degradation in SK-HEP1 cell line (immunofluorescence); type: cell-based; settings: 24 hours, ranges, read-out: DC50 SK-HEP1
Procedure: (§1) Degradation of TEAD isoform TEAD1 by exemplary compounds which has been determined at different time points in two different cell lines, SK-HEP1 and NCI-H226: For the assay, SK-HEP1 (ATCC HTB-52) and NCI-H226 (ATCC CRL-5826) cells were treated in duplicates with the test compounds in a 10-point dose, 1:3 dilution steps, with the top concentration starting at 30 uM (final concentration in assay). After either 16 or 24 hour incubation at 37° C., 95% rH, and 5% CO2, the cells were fixed with 4% PFA and TEAD1 levels were probed using immunofluorescence. The primary antibody used was Anti-TEF1 (BD, 610293) and the secondary antibody used was Alexa Fluor® 488 Goat Anti-Mouse IgG (H+L) (Molecular Probes, A-11001). Finally, the cell nuclei were co-stained by Hoechst 33258 (Invitrogen, H-3569) and imaged using a high content imager. The amount of TEAD degradation was determined by quantifying the fluorescence intensity levels of Anti-TEF1 in each individual cell per well. DC50 was calculated using curve fitting software Genedata Screener. Cell media: The SK-HEP1 cells were cultured in the following media: MEM, +10% FCS, +1× GlutaMAX, +100 μM NEAA, +10 mM HEPES, +0.5% Pen/Strep. The NCI-H226 cells were cultured in the following media: RPMI 1640, +10% FBS, +1× GlutaMAX, +10 mM HEPES, +0.5% Pen/Strep.

TEAD1 in NCI-H226 cells = TEAD1 in NCI-H226 cells (Homo sapiens (Human), UniProt P28347); experiment: TEAD degradation in NCI-H226 cell line (immunofluorescence); type: cell-based; settings: 24 hours, ranges, read-out: DC50 NCI-H226
Sequence of TEAD1 in NCI-H226 cells (P28347 whole entry): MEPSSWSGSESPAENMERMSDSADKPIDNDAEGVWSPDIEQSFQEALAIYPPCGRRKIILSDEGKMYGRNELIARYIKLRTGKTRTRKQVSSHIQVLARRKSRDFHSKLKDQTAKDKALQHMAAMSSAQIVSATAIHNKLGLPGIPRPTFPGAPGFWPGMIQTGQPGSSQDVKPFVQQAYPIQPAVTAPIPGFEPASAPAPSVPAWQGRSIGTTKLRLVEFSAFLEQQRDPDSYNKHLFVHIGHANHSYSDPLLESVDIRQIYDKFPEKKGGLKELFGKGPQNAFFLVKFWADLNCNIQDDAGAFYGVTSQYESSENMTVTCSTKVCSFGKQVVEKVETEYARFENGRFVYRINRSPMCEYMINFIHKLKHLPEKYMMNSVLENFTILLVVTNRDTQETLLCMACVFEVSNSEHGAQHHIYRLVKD
Procedure: as §1

Sequence of TEAD1 in SK-HEP1 cells (P28347 whole entry, canonical isoform): as the sequence (P28347 whole entry) above

DC50 (TEAD1 in SK-HEP1 cells) [nM] | DC50 (TEAD1 in NCI-H226 cells) [nM] | SMILES
1000 to 3000 | 1000 to 3000 | Cc1ncsc1-c1ccc(CNC(=O)[C@@H]2C[C@@H](O)CN2C(=O)[C@@H](NC(=O)CCCOCCOCCOCCOCCNC(=O)c2ccc3c(c2)c2cn(C)nc2n3-c2ccc(C(F)(F)F)cc2)C(C)(C)C)cc1 [Compound 57, [(2S)-3,3-dimethyl-2-[1-({2-methyl-8-[4-(trifluoromethyl)phenyl]-2H,8H-pyrazolo[3,4-b]indol-5-yl}formamido)-3,6,9,12-tetraoxahexadecan-16-amido]butanoyl]-4-hydroxy-N-{[4-(4-methyl-1,3-thiazol-5-yl)phenyl]-methyl}pyrrolidine-2-carboxamide]
100 to 1000 | 100 to 1000 | Cc1ncsc1-c1ccc(CNC(=O)[C@@H]2C[C@@H](O)CN2C(=O)[C@@H](NC(=O)CCCCCCOCCOCCOCCNC(=O)c2ccc3c(c2)c2cn(C)nc2n3-c2ccc(C(F)(F)F)cc2)C(C)(C)C)cc1 [Compound 60, (2S,4R)-1-[(2S)-3,3-dimethyl-2-[7-(2-{2-[2-({2-methyl-8-[4-(trifluoro-methyl)phenyl]-2H,8H-pyrazolo[3,4-b]indol-5-yl}formamido)ethoxy]-ethoxy}ethoxy)heptanamido]butanoyl]-4-hydroxy-N-{[4-(4-methyl-1,3-thiazol-5-yl)phenyl]methyl}pyrrolidine-2-carboxamide]
3000 to 9000 | 3000 to 9000 | Cc1ncsc1-c1ccc(CNC(=O)[C@@H]2C[C@@H](O)CN2C(=O)[C@@H](NC(=O)CCOCCC(=O)NCCOCCOCCNC(=O)c2ccc3c(c2)c2cn(C)nc2n3-c2ccc(C(F)(F)F)cc2)C(C)(C)C)cc1 [Compound 61, (2S,4R)-1-[(2S)-3,3-dimethyl-2-(3-{2-[(2-{2-[2-({2-methyl-8-[4-(trifluoro-methyl)phenyl]-2H,8H-pyrazolo[3,4-b]indol-5-yl}formamido)-ethoxy]ethoxy}ethyl)carbamoyl]ethoxy}propanamido)butanoyl]-4-hydroxy-N-{[4-(4-methyl-1,3-thiazol-5-yl)phenyl]methyl}pyrrolidine-2-carboxamide]
100 to 1000 | 1000 to 3000 | Cc1ncsc1-c1ccc(CNC(=O)[C@@H]2C[C@@H](O)CN2C(=O)[C@@H](NC(=O)COCCCOCCOCCNC(=O)c2ccc3c(c2)c2cn(C)nc2n3-c2ccc(C(F)(F)F)cc2)C(C)(C)C)cc1 [Compound 74, (2S,4R)-1-[(2S)-3,3-dimethyl-2-[2-(3-{2-[2-({2-methyl-8-[4-(trifluoro-methyl)phenyl]-2H,8H-pyrazolo[3,4-b]indol-5-yl}formamido)ethoxy]-ethoxy}propoxy)acetamido]butanoyl]-4-hydroxy-N-{[4-(4-methyl-1,3-thiazol-5-yl)phenyl]methyl}pyrrolidine-2-carboxamide]
< 100 | 100 to 1000 | CN(CCOCCOCCOCCOCCNC(=O)c1ccc2c(c1)c1cn(C)nc1n2-c1ccc(C(F)(F)F)cc1)c1cccc2c1C(=O)N(C1CCC(=O)NC1=O)C2=O (stereo not drawn) [Compound 80, N-{2-[2-(2,6-dioxopiperidin-3-yl)-1,3-dioxo-2,3-dihydro-1H-isoindol-4-yl]-5,8,11,14-tetraoxa-2-azahexadecan-16-yl}-2-methyl-8-[4-(trifluoromethyl)phenyl]-2H,8H-pyrazolo[3,4-b]indole-5-carboxamide]

SMILES | DC50 (TEAD1 in SK-HEP1 cells) [nM] | DC50 (TEAD1 in NCI-H226 cells) [nM]
CCNC(=O)[C@H](Cc1ccccc1)NC(=O)[C@@H]1CCCN1C(=O)[C@@H](NC(=O)[C@H](C)NCCCCCCNC(=O)c1ccc2c(c1)c1cn(C)nc1n2-c1ccc(C(F)(F)F)cc1)C1CCCCC1 [Compound 73, (2S)-2-{[(2S)-1-[(2S)-2-cyclohexyl-2-[(2S)-2-{[6-({2-methyl-8-[4-(trifluoro-methyl)phenyl]-2H,8H-pyrazolo[3,4-b]indol-5-yl}formamido)hexyl]amino}-propanamido]acetyl]pyrrolidin-2-yl]formamido}-N-ethyl-3-phenylpropan-amide] | 3000 to 9000 | 9000 to 30000

— patent publication US20250032625A1, “HETEROBIFUNCTIONAL MOLECULES AS TEAD INHIBITORS” (Merck Patent GmbH, priority 2021, published 2025)
